For experiment [1], the system named is S. aureus MTCC 1430. As to the kind of experiment: Time kill assay. Particulars: 5X MIC, cells in PBS, CFU plated on nutrient agar. The format is cell-based, Staphylococcus aureus. The protocol: Purified AMPs were used to perform time kill assay against S. aureus MTCC 1430 as mentioned earlier ([Baindara et al., 2016]). Actively growing bacterial culture (0.2–0.3 OD at 600 nm) was centrifuged (10,000 rpm for 15 min at 4°C) and washed thrice with sterile PBS buffer. […] Upon incubation for different time intervals, cells were removed from reaction mixture by centrifugation and washed with PBS buffer. Bacterial culture without AMP treatment was used as negative control. Samples were withdrawn at the end of different treatment time points starting from 0 to 8 h, bacterial cells were pelleted, serially diluted, and cell suspensions were plated on nutrient agar plates. For each treatment, negative controls were also processed under identical conditions and plated on NA. CFU at different time intervals were recorded after overnight incubation at 37°C.

Experiment [2] deals with S. aureus MTCC 1430. Description: MIC, microtiter plate dilution assay. Type of experiment: cell-based, Staphylococcus aureus. The note with it: 5 × 10^5 CFU/ml, 37°C, OD600 after 24 h, triplicate. The protocol:
The antimicrobial activity was tested by well diffusion assay as mentioned earlier ([Singh et al., 2014]). Strain A52 was grown for 24 h in 500 ml of nutrient broth (NB, Hi-media, India) using 1000 ml flask and subsequently cells were removed by centrifugation (10,000 rpm for 15 min at 4°C). Supernatant was filtered through 0.22 μm filter (Millipore, United States) to obtain cell-free fermented broth (CFB) that was used for antimicrobial assay (50 μl) against various indicator strains and the activity was measured as diameter of inhibition zone. […]
The minimum inhibitory concentration (MIC) of HPLC purified peptides was evaluated by using microtiter plate dilution assay. […] OD was measured at 600 nm after 24 and 48 h for bacteria and yeast, respectively, using ELISA microplate reader (Thermo, United States). MIC against phytopathogenic fungi was determined using 96-well microtiter plate assay ([Kaur et al., 2016]). […] The microplates were incubated at 25°C and readings were recorded at 600 nm after 48 h. […]

“Glu^1-Leu/Ile^2-Leu^3-Val^4-Asp^5-Leu^6-Leu/Ile^7 and a β-OH hexadecane fatty acid chain (lariat or depsi) [Lipopeptide A52, cyclic surfactin-like lipopeptide, 7 amino acids and C16 β-hydroxy fatty acid, 1061.9 Da, from B. subtilis strain A52]”: the “time of treatment to complete killing / complete reduction of bacterial load” value in experiment [1] is at most 7 h. Moreover, in experiment [2], the “MIC value, S. aureus MTCC 1430” value stood at 4 µg/mL.

The values are drawn from publication PMC7300217, “Surfactin Like Broad Spectrum Antimicrobial Lipopeptide Co-produced With Sublancin From Bacillus subtilis Strain A52: Dual Reservoir of Bioactives” (Frontiers in Microbiology, 2020).
